Test results from publication PMC4457528, “Identification of Novel Small Molecule Inhibitors of Oncogenic RET Kinase” (PLoS ONE, 2015).
Read-outs that look alike come from different tables or passages of the source.

What was measured:
Test in all cases: KinomeScan kinase panel, single concentration 10 µM
Assay type in all cases: binding
[1] = biological target: T1, KinomeScan kinase panel (Homo sapiens, UniProt Q07912); details: read-out: score (%)
T1 construct: purchased DiscoveRx (KinomeScan)

[2] = biological target: T2, KinomeScan kinase panel (Homo sapiens, UniProt Q86UX6); details: kinase YANK3; 10 µM; read-out: score (%)
T2 construct: purchased DiscoveRx (KinomeScan)

[3] = biological target: T3, KinomeScan kinase panel (Homo sapiens, UniProt Q9UQM7); details: CAMK2A, 10 µM; read-out: score (%)
T3 construct: purchased DiscoveRx (KinomeScan)

[4] = biological target: T4, KinomeScan kinase panel (Homo sapiens, UniProt Q13976); details: read-out: score (%)
T4 construct: purchased DiscoveRx (KinomeScan)
T4 sequence (Q13976 1-671): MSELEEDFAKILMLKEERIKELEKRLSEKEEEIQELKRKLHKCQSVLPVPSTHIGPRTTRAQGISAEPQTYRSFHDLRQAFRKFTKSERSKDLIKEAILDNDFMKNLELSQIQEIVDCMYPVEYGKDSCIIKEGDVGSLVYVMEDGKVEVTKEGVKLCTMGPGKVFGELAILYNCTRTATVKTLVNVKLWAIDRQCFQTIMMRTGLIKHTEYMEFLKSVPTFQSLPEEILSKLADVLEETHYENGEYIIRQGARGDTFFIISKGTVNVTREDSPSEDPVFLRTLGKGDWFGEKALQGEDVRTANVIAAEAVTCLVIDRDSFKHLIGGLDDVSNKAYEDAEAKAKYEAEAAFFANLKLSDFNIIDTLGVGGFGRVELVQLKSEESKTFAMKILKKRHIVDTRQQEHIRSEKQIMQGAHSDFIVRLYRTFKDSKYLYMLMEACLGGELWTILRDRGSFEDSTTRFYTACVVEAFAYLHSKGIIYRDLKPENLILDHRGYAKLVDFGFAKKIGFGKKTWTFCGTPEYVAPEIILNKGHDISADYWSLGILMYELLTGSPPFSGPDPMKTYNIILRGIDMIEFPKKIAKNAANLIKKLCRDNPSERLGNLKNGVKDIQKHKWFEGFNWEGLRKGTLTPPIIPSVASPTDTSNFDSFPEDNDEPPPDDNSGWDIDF

[5] = biological target: T5, KinomeScan kinase panel (Homo sapiens, UniProt P54756); details: EPHA5, 10 µM
T5 construct: purchased DiscoveRx (KinomeScan)

[6] = biological target: T6, KinomeScan kinase panel (Homo sapiens, UniProt Q13554); details: CAMK2B, 10 µM; read-out: score (%)
T6 construct: purchased DiscoveRx (KinomeScan)

[7] = biological target: T7, KinomeScan kinase panel (Homo sapiens, UniProt Q96GD4); details: AURKB, 10 µM; read-out: score (%)
T7 construct: purchased DiscoveRx (KinomeScan)

[8] = biological target: T8, KinomeScan kinase panel (Homo sapiens, UniProt P07333); details: CSF1R, 10 µM; read-out: score (%)
T8 construct: purchased DiscoveRx (KinomeScan)

[9] = biological target: T9, KinomeScan kinase panel (Homo sapiens, UniProt Q9Y6E0); details: MST3, 10 µM
T9 construct: purchased DiscoveRx (KinomeScan)

[10] = biological target: T10, KinomeScan kinase panel (Homo sapiens, UniProt Q06418); details: kinase TYRO3; 10 µM; read-out: score (%)
T10 construct: purchased DiscoveRx (KinomeScan)
T10 sequence (Q06418 41-890): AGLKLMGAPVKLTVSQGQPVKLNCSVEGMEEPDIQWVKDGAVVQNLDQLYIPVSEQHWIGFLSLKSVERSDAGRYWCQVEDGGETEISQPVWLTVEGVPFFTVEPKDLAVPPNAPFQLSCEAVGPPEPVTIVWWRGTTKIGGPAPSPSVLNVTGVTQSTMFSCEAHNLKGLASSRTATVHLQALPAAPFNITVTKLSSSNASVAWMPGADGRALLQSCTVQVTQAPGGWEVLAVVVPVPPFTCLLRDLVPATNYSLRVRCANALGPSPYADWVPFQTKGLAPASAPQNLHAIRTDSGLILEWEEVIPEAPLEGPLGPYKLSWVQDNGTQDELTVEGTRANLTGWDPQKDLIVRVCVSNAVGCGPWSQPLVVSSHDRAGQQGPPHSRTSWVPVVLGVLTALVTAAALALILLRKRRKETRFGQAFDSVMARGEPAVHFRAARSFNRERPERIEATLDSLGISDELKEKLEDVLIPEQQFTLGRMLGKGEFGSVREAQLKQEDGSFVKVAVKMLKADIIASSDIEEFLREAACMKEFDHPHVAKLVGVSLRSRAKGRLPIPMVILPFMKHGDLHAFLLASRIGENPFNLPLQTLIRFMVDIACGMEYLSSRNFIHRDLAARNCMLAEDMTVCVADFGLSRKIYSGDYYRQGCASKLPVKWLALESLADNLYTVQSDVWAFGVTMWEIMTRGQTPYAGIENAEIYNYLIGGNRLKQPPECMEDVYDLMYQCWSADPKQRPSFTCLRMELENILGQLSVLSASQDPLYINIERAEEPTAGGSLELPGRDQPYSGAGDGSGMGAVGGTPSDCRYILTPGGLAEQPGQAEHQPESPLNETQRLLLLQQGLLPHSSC

[11] = biological target: T11, KinomeScan kinase panel (Homo sapiens, UniProt P42681); details: kinase TXK; 10 µM; read-out: score (%)
T11 construct: purchased DiscoveRx (KinomeScan)
T11 sequence (P42681 1-527): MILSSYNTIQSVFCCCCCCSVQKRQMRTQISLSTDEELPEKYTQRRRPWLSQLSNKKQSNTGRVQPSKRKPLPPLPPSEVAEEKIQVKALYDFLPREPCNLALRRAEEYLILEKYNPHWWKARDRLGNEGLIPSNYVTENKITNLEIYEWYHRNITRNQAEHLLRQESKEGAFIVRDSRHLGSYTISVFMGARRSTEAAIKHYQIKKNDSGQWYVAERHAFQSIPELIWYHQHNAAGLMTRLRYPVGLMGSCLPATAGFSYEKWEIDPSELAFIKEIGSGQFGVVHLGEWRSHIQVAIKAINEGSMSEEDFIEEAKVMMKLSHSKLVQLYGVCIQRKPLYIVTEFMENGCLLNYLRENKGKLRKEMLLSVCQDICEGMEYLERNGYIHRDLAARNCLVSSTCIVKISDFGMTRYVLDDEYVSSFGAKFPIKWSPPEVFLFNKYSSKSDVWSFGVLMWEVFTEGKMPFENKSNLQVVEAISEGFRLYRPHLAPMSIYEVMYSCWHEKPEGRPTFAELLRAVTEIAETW

[12] = biological target: T12, KinomeScan kinase panel (Homo sapiens, UniProt P0C1S8); details: kinase WEE2; 10 µM; read-out: score (%)
T12 construct: purchased DiscoveRx (KinomeScan)

[13] = biological target: T13, KinomeScan kinase panel (Homo sapiens, UniProt P00533, G719C); details: EGFR(G719C), 10 µM
T13 construct: purchased DiscoveRx (KinomeScan)

T1 sequence (Q07912 whole entry): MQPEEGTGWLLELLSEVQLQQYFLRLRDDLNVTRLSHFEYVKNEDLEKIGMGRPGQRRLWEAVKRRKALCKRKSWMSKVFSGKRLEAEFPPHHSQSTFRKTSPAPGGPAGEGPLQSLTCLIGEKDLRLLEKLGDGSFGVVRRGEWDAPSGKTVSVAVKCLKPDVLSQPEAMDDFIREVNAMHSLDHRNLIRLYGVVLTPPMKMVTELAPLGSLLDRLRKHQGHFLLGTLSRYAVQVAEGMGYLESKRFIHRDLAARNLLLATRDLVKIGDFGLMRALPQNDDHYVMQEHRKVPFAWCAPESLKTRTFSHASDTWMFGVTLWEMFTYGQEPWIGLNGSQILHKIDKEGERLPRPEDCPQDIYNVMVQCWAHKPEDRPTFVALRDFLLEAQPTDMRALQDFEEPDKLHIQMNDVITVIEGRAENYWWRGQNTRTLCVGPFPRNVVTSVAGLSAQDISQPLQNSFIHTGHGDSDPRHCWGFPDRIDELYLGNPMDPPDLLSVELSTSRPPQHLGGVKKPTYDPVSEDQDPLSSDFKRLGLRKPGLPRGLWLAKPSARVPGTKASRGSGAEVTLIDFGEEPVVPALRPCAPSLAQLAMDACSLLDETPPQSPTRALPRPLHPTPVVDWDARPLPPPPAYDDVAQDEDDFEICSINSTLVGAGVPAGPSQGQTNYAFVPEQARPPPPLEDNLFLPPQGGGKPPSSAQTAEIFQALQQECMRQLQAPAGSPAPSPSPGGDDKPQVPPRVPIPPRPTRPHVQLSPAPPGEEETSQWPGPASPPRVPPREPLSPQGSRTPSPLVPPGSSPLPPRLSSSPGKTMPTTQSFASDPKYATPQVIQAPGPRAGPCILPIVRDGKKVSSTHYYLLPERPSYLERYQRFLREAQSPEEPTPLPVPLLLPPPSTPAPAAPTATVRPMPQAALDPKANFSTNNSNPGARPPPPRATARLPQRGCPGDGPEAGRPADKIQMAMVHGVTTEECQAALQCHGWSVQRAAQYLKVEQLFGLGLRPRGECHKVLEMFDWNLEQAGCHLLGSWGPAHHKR
T9 sequence (Q9Y6E0 whole entry): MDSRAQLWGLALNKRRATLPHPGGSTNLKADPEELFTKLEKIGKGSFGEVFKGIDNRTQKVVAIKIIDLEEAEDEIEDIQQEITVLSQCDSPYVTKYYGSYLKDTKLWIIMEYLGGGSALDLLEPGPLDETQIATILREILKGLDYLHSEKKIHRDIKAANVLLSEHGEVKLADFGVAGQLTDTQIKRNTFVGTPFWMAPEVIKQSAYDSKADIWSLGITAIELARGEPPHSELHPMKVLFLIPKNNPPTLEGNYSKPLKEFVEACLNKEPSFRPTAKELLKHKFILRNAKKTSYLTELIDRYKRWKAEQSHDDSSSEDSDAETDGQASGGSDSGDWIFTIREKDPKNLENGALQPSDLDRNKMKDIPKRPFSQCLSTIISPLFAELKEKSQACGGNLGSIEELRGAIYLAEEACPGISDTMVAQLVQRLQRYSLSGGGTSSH
T8 sequence (P07333 20-972): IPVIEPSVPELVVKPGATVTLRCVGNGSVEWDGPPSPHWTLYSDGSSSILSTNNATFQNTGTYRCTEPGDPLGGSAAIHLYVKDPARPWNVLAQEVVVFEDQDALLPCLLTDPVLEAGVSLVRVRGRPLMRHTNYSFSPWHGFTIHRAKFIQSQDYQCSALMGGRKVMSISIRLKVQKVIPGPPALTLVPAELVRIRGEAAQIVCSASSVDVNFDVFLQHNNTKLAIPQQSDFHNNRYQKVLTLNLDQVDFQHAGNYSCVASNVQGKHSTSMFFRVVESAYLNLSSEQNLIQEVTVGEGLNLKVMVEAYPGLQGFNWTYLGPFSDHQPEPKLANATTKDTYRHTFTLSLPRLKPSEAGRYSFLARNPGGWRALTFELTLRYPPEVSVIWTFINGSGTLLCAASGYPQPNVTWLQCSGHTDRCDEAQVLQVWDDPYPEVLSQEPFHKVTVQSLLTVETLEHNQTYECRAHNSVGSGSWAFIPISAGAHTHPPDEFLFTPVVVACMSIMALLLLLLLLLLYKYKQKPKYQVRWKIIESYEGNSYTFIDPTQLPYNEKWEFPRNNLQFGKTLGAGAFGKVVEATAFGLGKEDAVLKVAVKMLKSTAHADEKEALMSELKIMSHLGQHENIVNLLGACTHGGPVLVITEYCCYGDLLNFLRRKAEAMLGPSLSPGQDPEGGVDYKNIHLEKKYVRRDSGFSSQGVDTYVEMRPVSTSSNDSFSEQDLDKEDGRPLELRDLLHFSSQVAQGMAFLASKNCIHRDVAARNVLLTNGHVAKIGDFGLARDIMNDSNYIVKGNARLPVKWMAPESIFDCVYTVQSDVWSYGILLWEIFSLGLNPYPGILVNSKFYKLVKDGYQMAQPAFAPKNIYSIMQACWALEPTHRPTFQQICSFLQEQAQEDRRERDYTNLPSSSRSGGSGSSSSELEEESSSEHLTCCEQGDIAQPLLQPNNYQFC
T6 sequence (Q13554 whole entry): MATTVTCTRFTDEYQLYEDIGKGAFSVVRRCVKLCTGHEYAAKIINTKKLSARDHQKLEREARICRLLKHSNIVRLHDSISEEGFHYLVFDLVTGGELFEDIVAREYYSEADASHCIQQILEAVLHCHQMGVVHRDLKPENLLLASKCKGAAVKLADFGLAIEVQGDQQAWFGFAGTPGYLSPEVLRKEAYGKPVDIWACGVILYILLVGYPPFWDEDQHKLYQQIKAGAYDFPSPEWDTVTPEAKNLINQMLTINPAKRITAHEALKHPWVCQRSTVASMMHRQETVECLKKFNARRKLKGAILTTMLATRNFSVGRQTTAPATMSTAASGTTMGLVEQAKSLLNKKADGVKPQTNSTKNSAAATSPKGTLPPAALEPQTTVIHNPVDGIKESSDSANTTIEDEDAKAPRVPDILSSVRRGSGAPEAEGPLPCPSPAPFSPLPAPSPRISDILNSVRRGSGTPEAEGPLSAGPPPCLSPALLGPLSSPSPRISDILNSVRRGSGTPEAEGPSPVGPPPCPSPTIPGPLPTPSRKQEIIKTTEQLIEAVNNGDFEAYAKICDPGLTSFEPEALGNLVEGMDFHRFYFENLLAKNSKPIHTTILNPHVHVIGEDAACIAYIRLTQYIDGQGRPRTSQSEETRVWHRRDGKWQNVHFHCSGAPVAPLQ
T2 sequence (Q86UX6 whole entry): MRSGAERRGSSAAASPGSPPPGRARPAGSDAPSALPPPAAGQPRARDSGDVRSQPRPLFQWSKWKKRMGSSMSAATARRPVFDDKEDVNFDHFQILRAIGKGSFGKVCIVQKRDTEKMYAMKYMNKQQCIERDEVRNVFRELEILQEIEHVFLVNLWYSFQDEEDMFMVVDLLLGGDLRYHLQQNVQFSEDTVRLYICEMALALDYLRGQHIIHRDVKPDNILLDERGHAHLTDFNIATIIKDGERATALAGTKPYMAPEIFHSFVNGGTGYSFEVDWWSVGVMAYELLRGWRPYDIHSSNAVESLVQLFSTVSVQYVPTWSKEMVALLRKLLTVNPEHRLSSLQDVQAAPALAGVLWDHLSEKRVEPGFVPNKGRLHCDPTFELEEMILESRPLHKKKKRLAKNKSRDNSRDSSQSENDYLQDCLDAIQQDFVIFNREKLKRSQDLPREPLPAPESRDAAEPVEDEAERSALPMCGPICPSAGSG
T3 sequence (Q9UQM7 whole entry): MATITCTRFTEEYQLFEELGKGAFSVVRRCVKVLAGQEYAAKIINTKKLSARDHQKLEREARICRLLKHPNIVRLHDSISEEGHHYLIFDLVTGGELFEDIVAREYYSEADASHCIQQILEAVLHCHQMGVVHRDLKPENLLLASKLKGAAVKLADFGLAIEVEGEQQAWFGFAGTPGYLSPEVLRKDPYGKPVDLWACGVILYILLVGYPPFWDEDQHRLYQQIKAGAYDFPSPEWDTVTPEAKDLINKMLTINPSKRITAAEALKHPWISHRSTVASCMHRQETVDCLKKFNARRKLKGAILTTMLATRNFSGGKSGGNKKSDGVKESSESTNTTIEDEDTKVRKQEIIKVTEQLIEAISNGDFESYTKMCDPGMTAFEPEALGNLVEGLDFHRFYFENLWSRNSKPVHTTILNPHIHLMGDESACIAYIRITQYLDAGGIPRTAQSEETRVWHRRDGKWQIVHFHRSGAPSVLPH
T12 sequence (P0C1S8 whole entry): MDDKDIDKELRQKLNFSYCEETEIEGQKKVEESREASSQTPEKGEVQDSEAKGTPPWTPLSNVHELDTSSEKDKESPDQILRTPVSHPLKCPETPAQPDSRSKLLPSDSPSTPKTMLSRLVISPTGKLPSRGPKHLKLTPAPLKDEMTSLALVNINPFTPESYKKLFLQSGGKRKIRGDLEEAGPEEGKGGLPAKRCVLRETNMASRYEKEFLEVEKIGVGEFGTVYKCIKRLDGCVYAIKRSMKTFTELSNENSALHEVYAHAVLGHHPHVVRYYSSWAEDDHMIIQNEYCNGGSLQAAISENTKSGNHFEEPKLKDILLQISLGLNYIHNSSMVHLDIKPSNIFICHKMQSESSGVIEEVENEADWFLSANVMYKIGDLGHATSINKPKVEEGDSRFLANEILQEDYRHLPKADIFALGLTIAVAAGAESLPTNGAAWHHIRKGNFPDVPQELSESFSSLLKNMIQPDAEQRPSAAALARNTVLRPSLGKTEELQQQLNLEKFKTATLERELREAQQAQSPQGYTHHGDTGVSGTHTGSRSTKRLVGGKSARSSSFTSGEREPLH
T7 sequence (Q96GD4 whole entry): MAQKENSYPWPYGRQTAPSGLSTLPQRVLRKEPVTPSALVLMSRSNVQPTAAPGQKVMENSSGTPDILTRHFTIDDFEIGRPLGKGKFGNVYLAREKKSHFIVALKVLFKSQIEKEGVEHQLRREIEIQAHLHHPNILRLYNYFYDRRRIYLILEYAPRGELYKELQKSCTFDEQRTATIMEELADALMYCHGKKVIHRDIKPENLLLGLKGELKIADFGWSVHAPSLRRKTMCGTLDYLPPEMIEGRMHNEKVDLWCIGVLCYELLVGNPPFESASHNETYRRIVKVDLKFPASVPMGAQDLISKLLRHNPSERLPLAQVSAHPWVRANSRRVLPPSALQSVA

Row | remaining binding at 10 µM ([1]; TNK2, 10 µM) | SMILES | remaining binding at 10 µM ([1]; kinase TNK2, 10 µM) | remaining binding at 10 µM [2] | remaining binding at 10 µM [3] | remaining binding at 10 µM ([4]; kinase PRKG1, 10 µM) | score (%) [5] | remaining binding at 10 µM [6] | remaining binding at 10 µM [7] | remaining binding at 10 µM [8] | score (%) [9] | remaining binding at 10 µM [10] | remaining binding at 10 µM [11] | remaining binding at 10 µM [12] | score (%) [13] | remaining binding at 10 µM ([4]; PRKG1, 10 µM)
1 |  | CCN1CCN(Cc2ccc(NC(=O)c3ccc(C)c(C#Cc4cccnc4)c3)cc2C(F)(F)F)CC1 [XMD15-44] | 11% | 75% | > 30% | 100% | 1.2% | > 30% | 24% | 0% | 2.8% | 100% | 0.3% | 100% | 0.75% | 
2 | 0.5% | CCN1CCN(Cc2ccc(NC(=O)c3ccc(C)c(/C=C/c4cnc5[nH]ccc5c4Cl)c3)cc2C(F)(F)F)CC1 [HG-6-63-01, (E)-3-(2-(4-chloro-1H-pyrrolo[2,3-b]pyridin-5-yl)vinyl)-N-(4-((4-ethylpiperazin-1-yl)methyl)-3-(trifluoromethyl)phenyl)-4-methylbenzamide] |  | > 30% | > 30% |  | 3.3% | > 30% | 6.6% | 0% | nb (Hits values higher than 30% were considered negative (no binding: nb)) | > 30% | 0.9% | 15% | 0.1% | > 30%
3 |  | CCN1CCN(Cc2ccc(NC(=O)c3ccc(C)c(NC(=O)c4cncc(-c5cccs5)c4)c3)cc2C(F)(F)F)CC1 [ALW-II-41-27] | 2.1% | > 30% | > 30% |  | 0.25% | > 30% | > 30% | 0% | nb (Hits values higher than 30% were considered negative (no binding: nb)) | > 30% | 1.8% | > 30% | 0.15% | > 30%
